SMILES strings stand for the structures.

The target in the first test is T1, human AR (Homo sapiens, UniProt P10275).
T1 construct: expressed in transfected cells; host or cells: COS-1
T1 sequence (P10275 1-920): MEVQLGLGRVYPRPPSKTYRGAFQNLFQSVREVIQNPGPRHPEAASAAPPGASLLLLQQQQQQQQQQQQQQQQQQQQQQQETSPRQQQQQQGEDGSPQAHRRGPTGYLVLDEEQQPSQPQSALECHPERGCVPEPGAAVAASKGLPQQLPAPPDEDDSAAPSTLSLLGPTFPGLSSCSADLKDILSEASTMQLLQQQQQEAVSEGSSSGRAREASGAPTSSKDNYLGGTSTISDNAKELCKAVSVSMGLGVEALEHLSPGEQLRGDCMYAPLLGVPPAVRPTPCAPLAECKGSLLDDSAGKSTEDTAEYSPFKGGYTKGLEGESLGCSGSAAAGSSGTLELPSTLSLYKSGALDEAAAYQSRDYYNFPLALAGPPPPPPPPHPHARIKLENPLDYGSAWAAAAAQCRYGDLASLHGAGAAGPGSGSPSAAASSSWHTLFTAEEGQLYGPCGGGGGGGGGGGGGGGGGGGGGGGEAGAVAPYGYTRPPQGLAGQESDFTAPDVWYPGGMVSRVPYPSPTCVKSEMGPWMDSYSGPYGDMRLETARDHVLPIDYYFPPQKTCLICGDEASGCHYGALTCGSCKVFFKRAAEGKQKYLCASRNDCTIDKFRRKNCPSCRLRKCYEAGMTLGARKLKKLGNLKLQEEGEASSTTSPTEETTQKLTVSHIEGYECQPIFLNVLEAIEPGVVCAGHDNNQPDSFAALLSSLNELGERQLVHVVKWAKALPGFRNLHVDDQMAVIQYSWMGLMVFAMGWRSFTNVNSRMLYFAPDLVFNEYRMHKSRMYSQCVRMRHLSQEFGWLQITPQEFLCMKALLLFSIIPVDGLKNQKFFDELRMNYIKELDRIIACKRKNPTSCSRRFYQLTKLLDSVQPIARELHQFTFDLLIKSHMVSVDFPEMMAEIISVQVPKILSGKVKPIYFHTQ
The test can be described thus: Competitive AR binding assay against [3H]-R1881 in transiently transfected COS-1 cells. The note with it: Table 1; compound 13.4 μM; [3H]-R1881 1.34 nM; complete inhibition equals 100%. The protocol:
Competitive AR Binding Assay.
AR binding was measured by a competitive assay against [^3H]-R1881 (PerkinElmer) in transiently transfected COS-1 cells. One day before transfection, COS-1 cells were seeded into 2 ml of DMEM (Dulbecco's modified Eagle medium, Gipco) with 10% dextran-charcoal-treated fetal bovine serum and 0.25% (vol/vol) Penicillin-Streptomysin (Euroclone) at a density of 140×10^3 cells/well. After medium change to DMEM 2.5% FBS, the cells were transfected for 24 hours with 10 ng/well of human AR expression vector pSG5 hAR by using the TransIT method (Micrus Bio TransIT LT1, Transfection Reagent). After 36 hours, the cells where treated with tested compounds using 10000 fold molarities compared to labelled R1881 (1.34 nM). After 2 hours of incubation at 37° C., the medium was removed. The cells were removed from the wells to 150 μl of 1× phosphate buffered saline (PBS), transferred to Eppendorf tubes and centrifuged at 4° C. using 4000×g for 5 min, and then washed twice with 150 μl of PBS. The cell pellets were dissolved to 50 μl of 0.5M NaOH and incubated for 15 min at 56° C., after which the samples (three replicates for each sample compound) were transferred to liquid twinkle tubes with 3 ml of OptiPhase HiSafe 3 twinkle solution (PerkinElmer) and radioactivity of AR-bound [^3H]-R1881 determined. The results were measured with LKB WALLAC 1214 racbeta equipment. The ability of test compounds to bind AR is reported as reduction in bound radioactivity obtained with 1.34 nM [^3H]-R1881.
The results (% inhibition) were calculated as: % inhibition=100−[100×(averagecompound/average[3H]-R1881)].
Turning to `Fc1ccccc1C1=NOC2CCCCC12` (single isomer, unassigned) [Example 27b, 3-(2-Fluoro-phenyl)-3a,4,5,6,7,7a-hexahydro-benzo[d]-isoxazole], the “Inhibition of [3H]-R1881 binding at 1.34 nM ± S.D.” value (“Inhibition of [3H]-R1881 binding” for short) came out at 0%.

As to `COc1ccc(C2=NOC(Cc3ccccc3)(c3ccccc3)C2)cc1` (single isomer, unassigned) [Example 14a, 5-Benzyl-3-(4-methoxyphenyl)-5-phenyl-4,5-dihydro-isoxazole], the “Inhibition of [3H]-R1881 binding” value is given as 29.6 ± 3.4%.

In the case of `Clc1ccccc1C1=NOC2CCCCC12` (single isomer, unassigned) [Example 30b, 3-(2-Chloro-phenyl)-3a,4,5,6,7,7a-hexahydro-benzo[d]-isoxazole], the “Inhibition of [3H]-R1881 binding” value is reported as 66.3 ± 6.5%.

On to `COc1ccc(CC2=NOC(C)(Cc3ccccc3)N2CC(C)C)cc1` (single isomer, unassigned) [Example 65b, 5-Benzyl-4-isobutyl-3-(4-methoxy-benzyl)-5-methyl-4,5-dihydro-[1,2,4]oxadiazole], for which the “Inhibition of [3H]-R1881 binding” value was determined as 13.5 ± 1.6%.

In the case of `COc1ccccc1C1=NOC(Cc2ccccc2)(c2ccccc2)C1` (single isomer, unassigned) [Example 12b, 5-Benzyl-3-(2-methoxyphenyl)-5-phenyl-4,5-dihydro-isoxazole], the “Inhibition of [3H]-R1881 binding” value is given as 30.2 ± 6.0%.

Consider `COc1cccc(C2=NOC(Cc3ccccc3)(c3ccccc3)C2)c1` (single isomer, unassigned) [Example 13b, 5-Benzyl-5-phenyl-3-(3-methoxyphenyl)-4,5-dihydro-isoxazole], for which the “Inhibition of [3H]-R1881 binding” value amounted to 1.6 ± 6.6%.

`COc1cccc(C2=NOC(Cc3ccccc3)(c3ccccc3)C2)c1` (single isomer, unassigned) [Example 13a, 5-Benzyl-5-phenyl-3-(3-methoxyphenyl)-4,5-dihydro-isoxazole]: the “Inhibition of [3H]-R1881 binding” value is on record as 31.1 ± 5.6%.

Regarding `Clc1cccc(C2=NOC3CCCCC23)c1` (single isomer, unassigned) [Example 31a, 3-(3-Chloro-phenyl)-3a,4,5,6,7,7a-hexahydro-benzo[d]-isoxazole], the “Inhibition of [3H]-R1881 binding” value was 20.3 ± 9.9%.

For `O=[N+]([O-])c1ccc(C2=NOC3CCCCC23)cc1` (single isomer, unassigned) [Example 34a, 3-(4-Nitro-phenyl)-3a,4,5,6,7,7a-hexahydro-benzo[d]-isoxazole], the “Inhibition of [3H]-R1881 binding” value was 34.7 ± 2.7%.

Take `CC(C)CN1C(c2ccc([N+](=O)[O-])cc2)=NOC1(C)Cc1ccccc1` (single isomer, unassigned) [Example 61b, 5-Benzyl-4-isobutyl-5-methyl-3-(4-nitro-phenyl)-4,5-dihydro-[1,2,4]oxadiazole]: the “Inhibition of [3H]-R1881 binding” value was found to be 0%.

As to `Fc1ccccc1C1=NOC2CCCCC12` (single isomer, unassigned) [Example 27a, 3-(2-Fluoro-phenyl)-3a,4,5,6,7,7a-hexahydro-benzo[d]-isoxazole], the “Inhibition of [3H]-R1881 binding” value turned out to be 17.0 ± 7.0%.

Turning to `CCCCN1C(Cc2ccccc2)=NOC1(C)Cc1ccccc1` (centres unmarked) [Example 55b, 3,5-Dibenzyl-4-butyl-5-methyl-4,5-dihydro-[1,2,4]oxadiazole], the “Inhibition of [3H]-R1881 binding” value is 32.7 ± 3.5%.

Regarding `CC1(Cc2ccccc2)CC(c2ccccc2Cl)=NO1` (centres unmarked) [Example 5b, 5-Benzyl-3-(2-chlorophenyl)-5-methyl-4,5-dihydroisoxazole], the “Inhibition of [3H]-R1881 binding” value came to 59.7 ± 2.7%.

Take `CC(C)CN1C(c2ccc([N+](=O)[O-])cc2)=NOC1(C)Cc1ccccc1` (single isomer, unassigned) [Example 61a, 5-Benzyl-4-isobutyl-5-methyl-3-(4-nitro-phenyl)-4,5-dihydro-[1,2,4]oxadiazole]: the “Inhibition of [3H]-R1881 binding” value is reported as 14.9 ± 1.8%.

For `COc1ccc(CC2=NOC(C)(Cc3ccccc3)N2CC(C)C)cc1` (single isomer, unassigned) [Example 65a, 5-Benzyl-4-isobutyl-3-(4-methoxy-benzyl)-5-methyl-4,5-dihydro-[1,2,4]oxadiazole], the “Inhibition of [3H]-R1881 binding” value came to 0%.

Consider `CCCCN1C(c2cccc(Cl)c2)=NOC1(C)Cc1ccccc1` (centres unmarked) [Example 50b, 5-Benzyl-4-butyl-3-(3-chloro-phenyl)-5-methyl-4,5-dihydro-[1,2,4]oxadiazole], for which the “Inhibition of [3H]-R1881 binding” value is recorded as 55.7 ± 1.9%.

The same test, now with this note: Table 1; compound 13.4 μM; [3H]-R1881 1.34 nM; complete inhibition equals 100%; read-out: Inhibition of [3H]-R1881 binding at 1.34 nM ± S.D.
Take `CC1(Cc2ccccc2)CC(c2ccc(C#N)cc2)=NO1` (centres unmarked) [Example 8ab, 4-(5-Benzyl-5-methyl-4,5-dihydro-isoxazol-3-yl)-benzonitrile]: the inhibition at 13.4 µM worked out at 30.4 ± 2.9%.

For the molecule `CCCCN1C(c2cccc3ccccc23)=NOC1(C)Cc1ccccc1` (centres unmarked) [Example 53ab, 5-Benzyl-4-butyl-5-methyl-3-napthalen-1-yl-4,5-dihydro-[1,2,4]oxadiazole], the inhibition at 13.4 µM was found to be 29.8 ± 10.8%.

Turning to `COc1cccc(C2=NOC(C)(Cc3ccccc3)C2)c1` (centres unmarked) [Example 2ab, 5-Benzyl-3-(3-methoxyphenyl)-5-methyl-4,5-dihydro-isoxazole], the inhibition at 13.4 µM was 64.2 ± 2.2%.

Consider `CC1(Cc2ccccc2)CC(c2ccccc2F)=NO1` (centres unmarked) [Example 4ab, 5-Benzyl-3-(2-fluorophenyl)-5-methyl-4,5-dihydro-isoxazole], for which the inhibition at 13.4 µM came out at 69.9 ± 3.3%.

As for `CC1(Cc2ccccc2)CC(c2ccccc2Cl)=NO1` (centres unmarked) [Example 5a, 5-Benzyl-3-(2-chlorophenyl)-5-methyl-4,5-dihydroisoxazole], the inhibition at 13.4 µM came to 42.7 ± 6.6%.

For the molecule `CCCCN1C(CCc2ccccc2)=NOC1(C)Cc1ccccc1` (centres unmarked) [Example 57ab, 5-Benzyl-4-butyl-5-methyl-3-phenethyl-4,5-dihydro-[1,2,4]oxadiazole], the inhibition at 13.4 µM came out at 48.7 ± 3.3%.

Take `CCCCN1C(c2ccc3ccccc3c2)=NOC1(C)Cc1ccccc1` (centres unmarked) [Example 54ab, 5-Benzyl-4-butyl-5-methyl-3-napthalen-2-yl-4,5-dihydro-[1,2,4]oxadiazole]: the inhibition at 13.4 µM worked out at 28.2 ± 3%.

For `CC(C)CN1C(CCCc2ccccc2)=NOC1(C)Cc1ccccc1` (centres unmarked) [Example 68ab, 5-Benzyl-4-isobutyl-5-methyl-3-(3-phenyl-propyl)-4,5-dihydro-[1,2,4]oxadiazole], the inhibition at 13.4 µM was 14.7 ± 1%.

`CCCCN1C(c2cccc(Cl)c2)=NOC1(C)Cc1ccccc1` (centres unmarked) [Example 50a, 5-Benzyl-4-butyl-3-(3-chloro-phenyl)-5-methyl-4,5-dihydro-[1,2,4]oxadiazole]: the inhibition at 13.4 µM turned out to be 63.8 ± 1.8%.

On to `CC1(Cc2ccccc2)CC(c2cccc(Cl)c2)=NO1` (centres unmarked) [Example 6ab, 5-Benzyl-3-(3-chlorophenyl)-5-methyl-4,5-dihydroisoxazole], for which the inhibition at 13.4 µM came out at 31.4 ± 1.9%.

In the case of `CCCCN1C(CCc2ccc(OC)cc2)=NOC1(C)Cc1ccccc1` (centres unmarked) [Example 58ab, 5-Benzyl-4-butyl-3-[2-(4-methoxy-phenyl)-ethyl]-5-methyl-4,5-dihydro-[1,2,4]oxadiazole], the inhibition at 13.4 µM was 8.2 ± 1.3%.

`CC(C)CN1C(CCc2ccccc2)=NOC1(C)Cc1ccccc1` (centres unmarked) [Example 66ab, 5-Benzyl-4-isobutyl-5-methyl-3-phenethyl-4,5-dihydro-[1,2,4]oxadiazole]: the inhibition at 13.4 µM worked out at 17.8 ± 2.4%.

Take `CCCCN1C(Cc2ccccc2)=NOC1(C)Cc1ccccc1` (centres unmarked) [Example 55a, 3,5-Dibenzyl-4-butyl-5-methyl-4,5-dihydro-[1,2,4]oxadiazole]: the inhibition at 13.4 µM came out at 35.1 ± 5.8%.

The record behind these values is patent US9278942B2, “Non-steroidal compounds as androgen receptor modulators” (FLX Discoveries Oy, priority 2011, dated 2016).
